Source: patent US9096853B2, “Modified siRNA molecules incorporating 5-fluoro-2′-deoxyuridine residues to enhance cytotoxicity” (U.S. Department of Veterans Affairs, priority 2012, dated 2015)
d = 2'-deoxy (DNA); r = 2'-OH (RNA)

Legend:
[1] = tested on: p53, Fas, cleaved PARP, γH2AX, p-ATM; experiment: Immunoblot of DNA damage and apoptosis signaling proteins, time course; format: cell-based, human; details: RKO cells, ssiRNA 10 nM, 0-72 hr
Procedure: FIG. 5 illustrates time-dependent effects of FdU-containing ssiRNAs on protein expression. RKO cells were transfected with various TS6 ssiRNAs (10 nM). After 6 hr, the medium was replaced, and cells were harvested for immunoblot blot analysis at the following times: before39 transfection (pre) and 0, 24, 48, and 72 hr after transfection. Images shown are representative blots from at least 4 different experiments; and
(§1) Protein concentrations of cell lysates were determined using the DC Protein Assay (Bio-Rad; Hercules, Calif.). Equal amounts of protein (30 μg) from each cell lysate were resolved on SDS-PAGE using the method of Laemmli (Reference 19) and transferred onto 0.45 μm nitrocellulose membranes (Bio-Rad). Membranes were blocked and incubated overnight with primary antibodies at 4° C. The following antibodies were used in the experiments: anti-TS (Clone 4H4B1; Invitrogen), anti-TS (#5449; Cell Signaling; San Francisco, Calif.), anti-p21 Waf1/Cip1 (#2947; Cell Signaling), anti-p53 (#sc-126; Santa Cruz Biotechnology; Santa Cruz, Calif.), anti-PARP (#9542; Cell Signaling), anti-Fas (#4233; Cell Signaling), anti-phospho-histone H2A.X (Ser139) (#2577; Cell Signaling), anti-histone H2A.X (#7631; Cell Signaling), anti-phospho-ATM (pS1981; EPITOMICS Inc.; Burlingame, Calif.), anti-ATM (#A1106; Sigma), and anti-α-tubulin (EMD Biosciences; San Diego, Calif.). After multiple TBST washes (1×TBS, 0.1% Tween-20), membranes were incubated with corresponding horseradish peroxidase-conjugated secondary antibodies (Bio-Rad) for 1 hr at room temperature. Proteins were detected by the enhanced chemiluminescence method (SuperSignal West Pico substrate; Pierce; Rockford, Ill.). Quantitation of signal intensities was performed by densitometry on a Xerox scanner using NIH IMAGEJ software.

[2] = tested on: thymidylate synthase (TS) protein; experiment: Immunoblot analysis of TS protein (free and ITC-bound), Odyssey quantitation; format: cell-based, human; details: RKO cells, 48 hr
Procedure: FIGS. 1A-B illustrate the effect of FdU incorporation in ssiRNA on TS protein expression. RKO cells were transfected with TS6 ssiRNAs (1 nM) containing various 3′-overhangs. After 6 hr, the medium was replaced. After an additional 48 hr, cells were harvested and processed for immunoblot and qPCR analysis as described in the Materials and Methods section. (A) Representative blot from 4 experiments. (B) All qPCR values represent the mean±S.D. from at least 3 separate experiments performed in triplicate. The normalized amount of TS mRNA from mock-transfected cells (LF2000) was set to 1.0 and all other values compared against that value. ITC, inhibitory ternary complex;
Cells were plated at a density of 1.5×10^5 cells/well. On the following day, ssiRNAs were complexed with Lipofectamine 2000 (LF2000, Invitrogen) in serum-free RPMI-1640 medium and added to the plated cells. After 48 hr, cells were rinsed with PBS and scraped in cell lysis buffer (10 mM Tris pH7.4, 150 mM NaCl, 1 mM EDTA, 1% IGEPAL, 0.5% sodium deoxycholate, and 0.1% SDS) containing freshly added Protease Inhibitor Cocktail (Sigma; St. Louis, Mo.), 1 mM phenylmethylsulfonyl fluoride, and phosphatase inhibitors (Sigma). Lysates were sonicated and then centrifuged at 14,000 rpm for 30 min at 4° C. to remove debris. Cell lysates were stored at −80° C. for future use. For mRNA analysis, total RNA was extracted using Trizol (Invitrogen) and stored at −80° C. for future use.
as §1
Immunoblots were prepared as described above. After incubation with anti-TS polyclonal antibody, membranes were blocked with the Odyssey blocking buffer and incubated with IRDye 800CW goat anti-rabbit antibody (LI-COR Biosciences; Lincoln, Nebr., USA) according to the manufacturer instructions. The fluorescent signal was detected and quantified using the Odyssey infrared imaging system (LI-COR).

Substance: TS6-dU/dA: unmodified TS-targeted ssiRNA, 5 dU on 3′-end of sense strand, 5 dA on 3′-end of antisense strand; SEQ ID NO: 3 and 4 (sense GGAUAUUGUCAGUCUUUAGGUUUUU; antisense CCUAAAGACUGACAAUAUCCAAAAA; sense: sugars from the 5' end r20 d5, backbone and T or U not given here; antisense: sugars from the 5' end r20 d5, backbone not given here)
- biomarkers of DNA damage, γH2AX and p-ATM [1]: little to no effect
- suppression of expression of TS protein ([2]; 1 nM): ~80%
- Free TS (%) ([2]; ssiRNA 1 nM, normalized to free TS protein in mock-transfected cells (LF2000) set to 100%, mean ± S.D., 6 experiments): 22.6 ± 7.5%
